These results are taken from patent US20050143371A1, “Beta-carboline compounds and analogues thereof as mitogen-activated protein kinase-activated protein kinase-2 inhibitors” (Pharmacia Corporation, priority 2003, published 2005).

Experiment [1] addresses Recombinant MAPKAPK2 (Homo sapiens, UniProt P49137). The experiment can be described thus: Determination of MK-2 IC50 (HSP-peptide phosphorylation, anion exchange resin capture assay).
Experimental: The phosphorylation of HSP-peptide ([sequence]) by MAPKAPK2 was measured using an anion exchange resin capture assay method. […] The reaction was terminated and [γ^33P]ATP was removed from solution by the addition of 150 μl of AG 1×8 ion exchange resin in 900 mM sodium formate pH 3.0. A 50 μl aliquot of head volume was removed from the quenched reaction mixture and added to a 96-well plate, 150 μl of Microscint-40 (Packard) was added and the amount of phosphorylated-peptide was determined. Allow the Microscint to sit in the plates for 60 minutes prior to counting.
Compounds are evaluated as potential inhibitors of the MK2 kinase by measuring their effects on MK2 phosphorylation of the peptide substrate. Compounds may be screened initially at two concentrations prior to determination of IC50 values. Screening results are expressed as percent inhibition at the concentrations of compound tested. For IC50 value determinations, compounds are tested at six concentrations in ten-fold serial dilutions with each concentration tested in triplicate. Results are expressed as IC50 values in micromolar. The assay is performed at a final concentration of 2% DMSO.
Experiment [2] has as its system TNFα release, U937 cells. Briefly: U937 Cell TNFα Release Assay (LPS-stimulated, TNFα ELISA). It counts as cell-based, human. The note with it: additional values are replicate IC50 experiments, read-out: TNF Release Assay Avg. IC50. The protocol: U937 Cell TNFα Release Assay
Differentiation of U937 to monocytic/macrophage-like cells is induced by the addition of phorboll2-myristate 13-acetate (Sigma) at final concentration of 20 ng/ml to a culture of U937 cells at ˜0.5 million cells/ml and incubated for 24 hrs. The cells are centrifuged, washed with PBS and resuspended in fresh media without PMA and incubated for 24 hrs. Cells adherent to the culture flask are harvested by scraping, centrifugation, and resuspended in fresh media to 2 million cells/ml, and 0.2 ml is aliquoted to each of 96 wells in flat-bottom plate. Cells are then incubated for an additional 24 hrs to allow for recovery. The media is removed from the cells, and 0.1 ml of fresh media is added per well. 0.05 ml of serially diluted compound or control vehicle (Media with DMSO) is added to the cells. […] Cells are incubated at 37° C. for 4 hrs. After 4 hrs incubation, supernatants are harvest and assayed by ELISA for the presence of TNFα.
Coating solution was aspirated the following day and wells were blocked with 1 mg/ml gelatin in PBS (plus 1×thimerasol) for 2 days at 4° C. Prior to using, wells were washed 3× with wash buffer (PBS with 0.05% Tween). Cultured media samples were diluted in EIA buffer (5 mg/ml bovine γ-globulin, 1 mg/ml gelatin, 1 ml/l Tween-20, 1 mg/ml thimerasol in PBS), added to wells (0.1 ml/well) in triplicate and allowed to incubate for 1.5 hr at 37° C. in a humidified chamber. […] After final washing, plates were developed with peroxidase-ABTS solution (Kirkegaard/Perry #50-66-01, 0.1 ml/well). […] TNF levels were quantitated from a recombinant human TNFα (R&D Systems #210-TA-010) standard curve using a quadratic parameter fit generated by SoftMaxPRO software. ELISA sensitivity was approximately 30 pg TNF/ml. IC50 values for compounds were generated using BioAssay Solver.

Experiment [3] concerns murine model of endotoxin-induced shock. Particulars: cited from earlier work.
Experiment [4] deals with rat adjuvant arthritis. The note with it: in vivo; cited from earlier work.
Experiment [5] deals with mouse collagen-induced arthritis. The note with it: in vivo; cited from earlier work.
[6] abbreviates: read-out: in vitro MK-2 inhibition IC50.
Where [7] appears, read: Homo sapiens, U-937, U937 cells.

Where “and” joins values, the source holds several entries; their conditions need not be identical. Equal values may be shown once. Where a name gives a salt, the structure may show the parent alone. Read-outs that look alike come from different tables or passages of the source.

Sequence of Recombinant MAPKAPK2 (P49137 whole entry, species assumed): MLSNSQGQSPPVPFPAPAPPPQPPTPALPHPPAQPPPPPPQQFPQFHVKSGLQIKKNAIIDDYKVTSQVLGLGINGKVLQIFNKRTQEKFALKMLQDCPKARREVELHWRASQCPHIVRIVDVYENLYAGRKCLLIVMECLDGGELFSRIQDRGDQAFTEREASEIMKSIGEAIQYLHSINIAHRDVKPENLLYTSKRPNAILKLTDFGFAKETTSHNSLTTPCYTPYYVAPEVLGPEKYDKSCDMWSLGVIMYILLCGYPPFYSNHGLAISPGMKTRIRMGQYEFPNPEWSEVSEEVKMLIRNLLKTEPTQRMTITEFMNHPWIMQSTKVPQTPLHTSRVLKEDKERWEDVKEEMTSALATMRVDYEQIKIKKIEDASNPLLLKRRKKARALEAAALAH

One may read the IC50 as the concentration that inhibits the measured activity by half. On to `ON=C1CCCc2c1[nH]c1ccc(C(F)(F)F)cc21` [6-(trifluoromethyl)-2,3,4,9-tetrahydro-1H-carbazol-1-one oxime], for which the IC50 in experiment [1] (setting [6]) was less than 200 µM.
Consider `O=C1NCCc2c1[nH]c1ccc(CCc3ccccc3)cc21` [Compound 42, 6-(2-phenylethyl)-2,3,4,9-tetra-hydro-1H-beta-car-bolin-1-one], for which, in experiment [1], the IC50 is greater than 200 µM.
As to `COC(=O)c1cccc2c3c([nH]c12)CCNC3=O` [Example 6, methyl 1-oxo-2,3,4,5-tetrahydro-1H-pyrido[4,3-b]indole-6-carboxylate], in experiment [1] (setting [6]), the IC50 was less than 20 µM.
For the compound `COc1ccc2[nH]c3c(c2c1)CCC(C)/C3=N/O` (stereo not shown) [Compound 19, 6-methoxy-2-methyl-2,3,4,9-tetrahydro-1H-car-bazol-1-one oxime], the 50% inhibitory concentration (IC50) in experiment [2] (U937 cells) was 100 µM and 95 µM.
`O/N=C1\CCCc2c1[nH]c1ccc(Br)cc21` [Compound 14]: the figures for the IC50 in experiment [1] and in experiment [2] (setting [7]) were 7.01 µM and 15.3 µM, respectively.
For the compound `O=C1NCCc2[nH]c3c(ccc4cnccc43)c21` [Compound 1, 8,9,10,11-tetrahydro-7H-py-rido[3′,4′:4,5]pyrrolo[2,3-f]isoquinolin-7-one trifluoroacetate], the IC50 in experiment [2] (setting [7]) was found to be 0.845 µM.
With `C[S+]([O-])c1ccc(-c2nc(-c3ccncc3)c(-c3ccc(F)cc3)[nH]2)cc1` (stereo not shown) [SB203580], the mortality result in experiment [3] is recorded as “reduce mortality”. Also, the “development of rat adjuvant arthritis” value in experiment [4] was “inhibit the development”. Besides, the “development of mouse collagen-induced arthritis” value in experiment [5] is “inhibit the development”.
